The text below walks through data of US20240150377A1, “MODULATORS OF CYSTIC FIBROSIS TRANSMEMBRANE CONDUCTANCE REGULATOR” (VERTEX PHARMACEUTICALS INCORPORATED, priority 2020, published 2024).

The target in the assay is T1, CFTR (Homo sapiens, UniProt P13569, DEL508-508).
T1 construct: endogenous in cells; host or cells: primary human bronchial epithelial cells from CF subjects (F508del/MF-HBE), differentiated at air-liquid interface
The assay is described as follows: HBE assay: Ussing chamber assay of CFTR-mediated short-circuit currents. It counts as cell-based. Particulars: for EC50: read-out: HBE EC50. The method in brief:
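CFTR-mediated Isc (μA/cm²) equals the peak response to apical 20 μM forskolin minus the residual after a 20 μM each BPO/GlyH-101/CFTR inhibitor 172 cocktail, recorded in Ussing chambers at Vhold 0 mV, 37 °C, pH 7.4, with 30 μM apical amiloride. Cells were F508del/MF HBE cultures preincubated 18-24 h with corrector (concentration range or 10 μM) plus 1 μM ivacaftor in 20% human serum.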

The mark [1] stands for this setting: Table 10, read-out: HBE Max activity (%).
Setting [2] is: Table 11, read-out: HBE Max Activity (%).
Where [3] appears, read: Table 12, read-out: HBE Max Activity (%).
Setting [4] is: Table 13, read-out: HBE Max Activity (%).
Setting [5] is: Table 13, at 10 μM, read-out: HBE Activity at 10 μM (%).
[6] abbreviates: HBE assay, read-out: HBE Max activity (%).
[7] abbreviates: Table 11, at 10 μM, read-out: HBE Activity at 10 μM (%).
Where [8] appears, read: HBE assay, 10 μM, read-out: HBE Activity at 10 μM (%).
Setting [9] is: Table 12, at 10 μM, read-out: HBE Activity at 10 μM (%).

Structures are written as SMILES. Like-named read-outs stand apart in the source and are kept apart here.

T1 sequence (P13569 with tags, fused parts or gaps DEL508-508): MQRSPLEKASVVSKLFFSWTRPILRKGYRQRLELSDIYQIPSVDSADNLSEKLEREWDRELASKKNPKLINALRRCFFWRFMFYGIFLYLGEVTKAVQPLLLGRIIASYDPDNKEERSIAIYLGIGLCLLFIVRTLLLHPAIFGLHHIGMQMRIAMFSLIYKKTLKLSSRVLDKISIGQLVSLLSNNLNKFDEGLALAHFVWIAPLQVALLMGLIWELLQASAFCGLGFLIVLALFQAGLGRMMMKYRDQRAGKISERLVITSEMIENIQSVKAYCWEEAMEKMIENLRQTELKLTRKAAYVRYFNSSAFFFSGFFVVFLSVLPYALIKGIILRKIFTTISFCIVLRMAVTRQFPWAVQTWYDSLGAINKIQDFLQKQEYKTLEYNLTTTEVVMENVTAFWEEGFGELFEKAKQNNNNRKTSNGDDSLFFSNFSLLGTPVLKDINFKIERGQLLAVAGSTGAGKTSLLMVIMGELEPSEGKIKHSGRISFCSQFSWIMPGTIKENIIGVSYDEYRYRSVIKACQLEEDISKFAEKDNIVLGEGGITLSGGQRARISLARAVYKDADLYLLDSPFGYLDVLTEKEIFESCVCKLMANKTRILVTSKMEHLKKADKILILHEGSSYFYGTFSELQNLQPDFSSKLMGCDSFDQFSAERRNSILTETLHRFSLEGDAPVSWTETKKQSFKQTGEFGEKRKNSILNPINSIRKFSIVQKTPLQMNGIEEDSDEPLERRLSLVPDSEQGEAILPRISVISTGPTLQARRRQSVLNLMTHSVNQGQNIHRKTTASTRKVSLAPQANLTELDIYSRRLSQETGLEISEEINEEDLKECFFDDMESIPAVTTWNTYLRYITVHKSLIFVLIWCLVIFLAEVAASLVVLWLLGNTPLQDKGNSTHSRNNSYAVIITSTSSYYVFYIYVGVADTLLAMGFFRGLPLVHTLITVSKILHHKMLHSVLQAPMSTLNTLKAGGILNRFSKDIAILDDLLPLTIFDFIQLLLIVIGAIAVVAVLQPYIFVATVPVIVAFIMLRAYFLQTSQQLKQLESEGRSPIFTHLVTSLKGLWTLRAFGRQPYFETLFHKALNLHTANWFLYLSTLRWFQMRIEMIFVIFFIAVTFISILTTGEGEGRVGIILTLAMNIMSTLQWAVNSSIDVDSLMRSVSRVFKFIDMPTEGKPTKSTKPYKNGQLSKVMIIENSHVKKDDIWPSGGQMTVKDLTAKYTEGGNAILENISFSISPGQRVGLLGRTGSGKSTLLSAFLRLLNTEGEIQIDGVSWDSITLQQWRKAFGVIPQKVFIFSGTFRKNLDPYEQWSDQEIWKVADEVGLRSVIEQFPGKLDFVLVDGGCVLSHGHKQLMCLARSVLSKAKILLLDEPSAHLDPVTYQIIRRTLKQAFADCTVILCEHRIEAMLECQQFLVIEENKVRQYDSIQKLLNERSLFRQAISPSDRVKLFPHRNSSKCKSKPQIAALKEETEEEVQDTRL

Broadly, the EC50 is the concentration giving half of the maximal effect. Take `Cc1cccc(C)c1-c1cc2nc(n1)NS(=O)(=O)c1cccc(c1)C(=O)N(Cc1cccc(-c3c(C)n[nH]c3C)c1)[C@H](CC(C)(C)C)CO2` [Compound 313]: the EC50 (Table 10) is under 1000 nM. Also, under setting [1], the Emax is over 60%.

For `Cc1cccc(C)c1-c1nc2nc(c1C)OC[C@@H](CC(C)(C)C)N(Cc1ncc(N(C)C)cc1N(C)C)C(=O)c1cccc(c1)S(=O)(=O)N2` [Compound 486], under “Table 10, at 10 μM, read-out: HBE activity at 10 (μM) (%)”, the activation at 10 µM was over 60%.

For the compound `Cc1cccc(C)c1-c1cc2nc(n1)NS(=O)(=O)c1cccc(c1)C(=O)N(Cc1nccc(N(C)C3CCCC3)n1)[C@H](CC(C)(C)C)CO2` [Compound 617], the concentration for a half-maximal effect (EC50) (Table 11) fell in the range of 1000 to 3000 nM. Under setting [2], the Emax was over 60%.

`Cc1cccc(C)c1-c1cc2nc(n1)NS(=O)(=O)c1cccc(c1)C(=O)N(Cc1ccn(CC(C)C)n1)[C@H](CC(C)(C)C)CO2` [Compound 454]: for the setting “Table 12”, the EC50 was under 1000 nM. Also, the Emax under setting [3] is over 60%.

On to `Cc1cccc(C)c1-c1cc2nc(n1)NS(=O)(=O)c1cccc(c1)C(=O)N(Cc1ccc(OCC(=O)N(C)C)cc1)[C@H](CC(C)(C)C)CO2` [Compound 779], for which, for the setting “Table 10”, the 50% effective concentration (EC50) is under 1000 nM. Besides, the Emax under setting [1] is over 60%.

On to `Cc1cccc(C)c1-c1cc2nc(n1)NS(=O)(=O)c1cccc(c1)C(=O)N(Cc1ncc(C3CC(C)(C)C3)cn1)[C@H](CC(C)(C)C)CO2` [Compound 158], for which the EC50 (Table 13) was under 1000 nM. Also, the Emax under setting [4] is over 60%.

On to `Cc1cccc(C)c1-c1cc2nc(n1)NS(=O)(=O)c1cccc(c1)C(=O)N(C(=O)c1ccccc1)[C@H](CC(C)(C)C)CO2` [Compound 256], for which, under setting [5], the activation at 10 µM is over 600%.

Turning to `Cc1cccc(C)c1-c1cc2nc(n1)NS(=O)(=O)c1cccc(c1)C(=O)N(Cc1ncc(N3CCSCC3)cn1)[C@H](CC(C)(C)C)CO2` [Compound 1147], the EC50 (Table 13) was under 1000 nM. Further, under setting [4], the Emax was over 60%.

For `CC(C)c1cccc(C(C)C)c1-c1cc2nc(n1)NS(=O)(=O)c1cccc(c1)C(=O)N(Cc1ncc(N3CCOCC3)cn1)[C@H](CC(C)(C)C)CO2` [Compound 830], the Emax under setting [1] is over 60%.

As to `CCOc1cnc(CN2C(=O)c3cccc(c3)S(=O)(=O)Nc3nc(cc(-c4c(C)cccc4C)n3)OC[C@H]2CC(C)(C)C(F)(F)F)nc1` [Compound 1489], for the setting “HBE assay”, the EC50 was under 1000 nM. Moreover, the Emax under setting [6] was over 60%.

For `Cc1cccc(C)c1-c1cc2nc(n1)NS(=O)(=O)c1cccc(c1)C(=O)N(Cc1ncc(N3CCC(F)(F)C3)cn1)[C@H](CC1CCC1)CO2` [Compound 1479], under “HBE assay”, the 50% effective concentration (EC50) was under 1000 nM. The Emax under setting [6] is over 60%.

Regarding `COCCN(c1cncc(CN2C(=O)c3cccc(c3)S(=O)(=O)Nc3nc(cc(-c4c(C)cccc4C)n3)OC[C@H]2CC(C)(C)C)n1)C(C)C` [Compound 1407], the EC50 (HBE assay) is under 1000 nM. The Emax under setting [6] is over 60%.

As to `COC[C@@H]1CCCN1c1cccc(CN2C(=O)c3cccc(c3)S(=O)(=O)Nc3nc(cc(-c4c(C)cccc4C)n3)OC[C@H]2CC(C)(C)C)n1` [Compound 275], the EC50 (Table 12) was under 1000 nM. In addition, the Emax under setting [3] was over 60%.

Consider `Cc1cccc(C)c1-c1cc2nc(n1)NS(=O)(=O)c1cccc(c1)C(=O)N(Cc1nccc(N(C)C3CC(C)(C)C3)n1)[C@H](CC(C)(C)C)CO2` [Compound 436], for which the EC50 (Table 13) was under 1000 nM. The Emax under setting [4] was over 60%.

Take `Cc1cccc(C)c1-c1cc2nc(n1)NS(=O)(=O)c1cccc(c1)C(=O)N(CC1CCC(N3C[C@@H](C)O[C@@H](C)C3)CC1)[C@H](CC(C)(C)C)CO2` (stereo partly shown) [Compound 914]: the EC50 (Table 10) was under 1000 nM.

As for `Cc1cccc(C)c1-c1cc2nc(n1)NS(=O)(=O)c1cccc(c1)C(=O)N(CC1CC(C)(C)CCO1)[C@H](CC(C)(C)C)CO2` (single isomer, unassigned) [Compound 25], under setting [7], the activation at 10 µM was over 60%.

Consider `CCOc1cnc(CN2C(=O)c3cccc(c3)S(=O)(=O)Nc3nc(cc(-c4c(C)cccc4C)n3)OC[C@H]2CC2(C)CC2)nc1` [Compound 1524], for which the activation at 10 µM under setting [8] is over 60%.

As to `Cc1cccc(C)c1-c1cc2nc(n1)NS(=O)(=O)c1cccc(c1)C(=O)N(Cc1ccc(C3CCCCO3)cn1)[C@H](CC(C)(C)C)CO2` (stereo partly shown) [Compound 707], the EC50 (Table 12) is under 1000 nM. Under setting [3], the Emax is over 60%.

With `Cc1cccc(C)c1-c1cc2nc(n1)NS(=O)(=O)c1cccc(c1)C(=O)N(CC(=O)N(C)C1CCOCC1)[C@H](CC(C)(C)C)CO2` [Compound 182], under setting [5], the activation at 10 µM was over 600%.

For `Cc1cccc(C)c1-c1cc2nc(n1)NS(=O)(=O)c1cccc(c1)C(=O)N(Cc1cccc(N3CCC(C)(O)CC3)n1)[C@H](CC(C)(C)C)CO2` [Compound 721], the half-maximal effective concentration (EC50) (Table 11) was under 1000 nM. For the same compound, the Emax under setting [2] is over 60%.

With `Cc1cccc(C)c1-c1cc2nc(n1)NS(=O)(=O)c1cccc(c1)C(=O)N(Cc1ncc(OC(C)C)cn1)[C@H](CC(C)C)CO2` [Compound 239], the EC50 (Table 12) lay in the range of 1000 to 3000 nM. The Emax under setting [3] is over 60%.

On to `Cc1cccc(C)c1-c1cc2nc(n1)NS(=O)(=O)c1cccc(c1)C(=O)N(Cc1ccc(OCC(C)C)cn1)[C@H](CC(C)(C)C)CO2` [Compound 747], for which, under setting [7], the activation at 10 µM is over 60%.

Consider `Cc1cccc(C)c1-c1cc2nc(n1)NS(=O)(=O)c1cccc(c1)C(=O)N(CC(=O)NC1CCC13CCC3)[C@H](CC(C)(C)C)CO2` (stereo partly shown) [Compound 173], for which the activation at 10 µM under setting [5] was over 600%.

Turning to `Cc1cccc(C)c1-c1cc2nc(n1)NS(=O)(=O)c1cccc(c1)C(=O)N(CC1CCCO1)[C@H](CC(C)(C)C)CO2` (stereo partly shown) [Compound 835], under “Table 10”, the EC50 is under 1000 nM. Further, under setting [1], the Emax was over 60%.

Take `Cc1cccc(C)c1-c1cc2nc(n1)NS(=O)(=O)c1cccc(c1)C(=O)N(Cc1ccc(N3CCC(C)(C)C3)nn1)[C@H](CC(C)(C)C)CO2` [Compound 238]: where the note is “Table 12”, the EC50 is under 1000 nM. Besides, the Emax under setting [3] lay within 30 to 60%.

`Cc1cccc(C)c1-c1cc2nc(n1)NS(=O)(=O)c1cccc(c1)C(=O)N(Cc1ccc(-c3cnc(O)nc3)cc1)[C@H](CC(C)(C)C)CO2` [Compound 145, (11R)-6-(2,6-dimethylphenyl)-11-(2,2-dimethylpropyl)-12-[[4-(2-hydroxypyrimidin-5-yl)phenyl]methyl]-2,2-dioxo-9-oxa-2λ^6-thia-3,5,12,19-tetrazatricyclo[12.3.1.14,8]nonadeca-1(18),4(19),5,7,14,16-hexaen-13-one]: the EC50 (Table 10) fell in the range of 1000 to 3000 nM. The Emax under setting [1] was over 60%.

With `Cc1cccc(C)c1-c1cc2nc(n1)NS(=O)(=O)c1cccc(c1)C(=O)N(CC(=O)NC1CCCCC1)[C@H](CC(C)(C)C)CO2` [Compound 205], under setting [5], the activation at 10 µM is over 600%.

`Cc1cccc(C)c1-c1cc2nc(n1)NS(=O)(=O)c1cccc(c1)C(=O)N(Cc1cccc(-c3c[nH]nc3C3CC3)c1)[C@H](CC(C)(C)C)CO2` [Compound 308]: the EC50 (Table 10) is under 1000 nM. Further, the Emax under setting [1] was over 60%.

For `Cc1cccc(C)c1-c1cc2nc(n1)NS(=O)(=O)c1cccc(c1)C(=O)N(Cc1ncccc1O)[C@H](CC(C)(C)C)CO2` [Compound 54, (11R)-6-(2,6-Dimethylphenyl)-11-(2,2-dimethylpropyl)-12-[(3-hydroxy-2-pyridyl)methyl]-2,2-dioxo-9-oxa-2λ^6-thia-3,5,12,19-tetrazatricyclo[12.3.1.14,8]nonadeca-1(18),4(19),5,7,14,16-hexaen-13-one], the EC50 (Table 10) is under 1000 nM. For the same compound, the Emax under setting [1] was over 60%.

In the case of `Cc1cccc(C)c1-c1cc2nc(n1)NS(=O)(=O)c1cccc(c1)C(=O)N(Cc1ccc3nc(NC(=O)CC(C)C)sc3c1)[C@H](CC(C)(C)C)CO2` [Compound 697], the activation at 10 µM under setting [9] is over 600%.

On to `Cc1cccc(C)c1-c1cc2nc(n1)NS(=O)(=O)c1cccc(c1)C(=O)N(Cc1ncc(N3CC(F)(F)C(F)(F)C3)cn1)[C@H](CC(C)(C)C)CO2` [Compound 1500], for which, under setting [8], the activation at 10 µM was over 60%.

In the case of `Cc1cccc(C)c1-c1cc2nc(n1)NS(=O)(=O)c1cccc(c1)C(=O)N(Cc1cccc(N3CCC[C@H]3C)n1)[C@H](CC(C)C)CO2` [Compound 573], the EC50 (Table 12) is under 1000 nM. For the same compound, under setting [3], the Emax is over 60%.

In the case of `Cc1cccc(C)c1-c1cc2nc(n1)NS(=O)(=O)c1cccc(c1)C(=O)N(Cc1nccc(N(C)C3CCC(C)(C)CC3)n1)[C@H](CC(C)(C)C)CO2` [Compound 435], the EC50 (Table 13) was under 1000 nM. The Emax under setting [4] was over 60%.

As for `Cc1cccc(C)c1-c1cc2nc(n1)NS(=O)(=O)c1cccc(c1)C(=O)N(Cc1ccc(C3CC4(C3)CC(C)(C)C4)cn1)[C@H](CC(C)(C)C)CO2` [Compound 1057], under setting [5], the activation at 10 µM was over 600%.

With `Cc1cccc(C)c1-c1cc2nc(n1)NS(=O)(=O)c1cccc(c1)C(=O)N(Cc1cnc(OC(C)C)cn1)[C@H](CC(C)(C)C)CO2` [Compound 897], the EC50 (Table 11) is under 1000 nM. For the same compound, under setting [2], the Emax is over 60%.

In the case of `Cc1cccc(C)c1-c1cc2nc(n1)NS(=O)(=O)c1cccc(c1)C(=O)N(Cc1ccc([C@@H](O)CO)cn1)[C@H](CC(C)(C)C)CO2` [Compound 1150], for the setting “Table 13”, the EC50 is under 1000 nM.

Take `Cc1cccc(C)c1-c1cc2nc(n1)NS(=O)(=O)c1cccc(c1)C(=O)N(Cc1ccnc(OC(C)C)n1)[C@H](CC(C)(C)C)CO2` [Compound 595]: the EC50 (Table 12) is under 1000 nM. Moreover, under setting [3], the Emax is over 60%.

For the compound `Cc1cccc(C)c1-c1cc2nc(n1)NS(=O)(=O)c1cccc(c1)C(=O)N(Cc1cccc3ccnn13)[C@H](CC(C)(C)C)CO2` [Compound 878], the activation at 10 µM under setting [9] was over 600%.
